# Laboratory results as given in patent US20250277012A1 (Protagonist Therapeutics, Inc., priority 2021, published 2025).
# Read-outs that look alike come from different tables or passages of the source. Starred links: 1 amine or outer side, 2 acyl side, 3 side chain; linkers in the order of their positions; H or OH if unused. Positions of bridges follow the written chain, without caps; N, C: chain ends. Non-standard residues stand in square brackets, D forms with d. Residues, ends and D or L forms follow the SMILES beside them. Groups on a side chain read outwards from the residue. *: point of attachment. CH3O(CH2CH2O)11CH2CH2CO = COCCOCCOCCOCCOCCOCCOCCOCCOCCOCCOCCOCCC(=O)*; C18 diacid = O=C(O)CCCCCCCCCCCCCCCCC(=O)*; Dip = N[C@H](C(=O)O)C(c1ccccc1)c1ccccc1; γGlu = O=C(O)[C@H](CCC(=O)[*:2])N[*:1]; Palmitoyl = CCCCCCCCCCCCCCCC(=O)*; NMeF = CN[C@@H](Cc1ccccc1)C(=O)O; 3Pal = N[C@@H](Cc1cccnc1)C(=O)O; β3hF = N[C@H](CC(=O)O)Cc1ccccc1; Aad = N[C@@H](CCCC(=O)O)C(=O)O; NMeK = CN[C@@H](CCCCN)C(=O)O; Tle = CC(C)(C)[C@H](N)C(=O)O; Isovaleryl = CC(C)CC(=O)*; NMeS = CN[C@@H](CO)C(=O)O; Dap = NC[C@H](N)C(=O)O; AEEA = NCCOCCOCC(=O)O; Inp = O=C(O)C1CCNCC1; Ahx = NCCCCCC(=O)O
# Assays:
# [1] = target: human ferroportin (SLC40A1) fused in frame with the GFP protein (human) (UniProt Q9NP59); assay: cell-based or functional assay
# ferroportin [2] = target: T1, ferroportin (Homo sapiens, UniProt Q9NP59); assay: FPN activity assay: ferroportin-GFP internalization/degradation in HEK293 cells; type: cell-based; parameters: expressed in transfected cells; conditions: read-out: FPN IC50
# T1 sequence (Q9NP59 1-571): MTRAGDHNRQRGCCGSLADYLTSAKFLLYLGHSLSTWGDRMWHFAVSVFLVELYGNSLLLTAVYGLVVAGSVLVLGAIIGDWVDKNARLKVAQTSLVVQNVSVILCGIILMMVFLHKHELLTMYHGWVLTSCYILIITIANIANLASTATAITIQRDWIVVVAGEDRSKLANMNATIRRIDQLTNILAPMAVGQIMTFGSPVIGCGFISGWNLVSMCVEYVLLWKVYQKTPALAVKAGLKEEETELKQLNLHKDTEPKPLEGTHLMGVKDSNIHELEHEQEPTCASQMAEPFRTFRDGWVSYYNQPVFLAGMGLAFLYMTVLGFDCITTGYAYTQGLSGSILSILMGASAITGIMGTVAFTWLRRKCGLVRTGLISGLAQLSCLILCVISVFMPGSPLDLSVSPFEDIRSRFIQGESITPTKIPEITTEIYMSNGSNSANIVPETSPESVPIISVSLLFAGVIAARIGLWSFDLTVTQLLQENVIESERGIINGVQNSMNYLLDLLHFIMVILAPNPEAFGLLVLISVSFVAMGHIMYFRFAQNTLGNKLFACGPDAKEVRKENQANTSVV
# Experimental: Following internalization, the ferroporin protein is degraded.
# A retro inverse peptide is a peptide with a reversed sequence in all D amino acids. An example is that Hy-Glu-Thr-His-NH2 becomes Hy-DHis-DThr-DGlu-NH2. The EC50 of these reference compounds for ferroportin internalization/degradation was determined according to the FPN activity assay described above. These peptides served as control standards.
# ferroportin [3] = target: T1, ferroportin; assay: T47D cell-based ferroportin internalization assay in presence of mouse serum albumin (MSA); parameters: a human breast carcinoma adherent cell line which endogenously expresses ferroportin; host or cells: T47D
# How it was run: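 Peptide potency for inducing ferroportin internalization was measured in T47D cells in the presence of serum albumin. Cells grown in RPMI with fetal bovine serum were seeded in 96-well plates at 80-100 k cells per well in 100 ul and rested overnight. Dilution series of test peptides were preincubated 30 min at room temperature, then added to the cells after the medium was aspirated.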
# [4] = ferroportin-GFP internalization/degradation, HEK293 cells, Table 6E
# [5] = T47D internalization assay in presence of mouse serum albumin (MSA), Table 6E
# [6] = ferroportin-GFP HEK293 cells, at least 18 hours
# [7] = T47D cells, 0.5% mouse serum albumin, 1 hr incubation
DC50 (ferroportin [2]; [4]) [nM],IC50 (ferroportin [3]; [5]) [nM],Molecule,further results
100 to 500,100 to 500,C[C@@H](O)[C@H](NC(=O)[C@H](CCC(=O)O)NC(=O)C1CCNCC1)C(=O)N[C@@H](Cc1c[nH]cn1)C(=O)N[C@H](C(=O)N1CCC[C@H]1C(=O)N[C@H]1CSSC[C@@H](C(=O)N(C)[C@@H](CCCCNC(=O)COCCOCCNC(=O)COCCOCCNC(=O)[C@H](CN)NC(=O)CCCCCCCCCCCCCCCCC(=O)O)C(=O)N[C@H](CC(=O)N[C@H](CCCCN)C(N)=O)Cc2ccccc2)NC1=O)C(c1ccccc1)c1ccccc1 [compound 300] (H-[Inp]ETH[Dip]PCC[NMeK]([AEEA-AEEA-Dap-C18 diacid])[β3hF][dK]-NH2; disulfide 7-8),–
10 to 100,10 to 100,CC(C)CC(=O)N[C@@H](CCC(=O)O)C(=O)N[C@H](C(=O)N[C@@H](Cc1c[nH]cn1)C(=O)N[C@H](C(=O)N1CCC[C@H]1C(=O)N[C@H]1CSSC[C@@H](C(=O)N(C)[C@@H](CCCCNC(=O)COCCOCCNC(=O)COCCOCCNC(=O)[C@H](CN)NC(=O)CCCCCCCCCCCCCCCCC(=O)O)C(=O)N[C@H](CC(=O)N[C@H](CCCCN)C(=O)N(C)[C@@H](CO)C(N)=O)Cc2ccccc2)NC1=O)C(c1ccccc1)c1ccccc1)[C@@H](C)O [compound 260] (Isovaleryl-ETH[Dip]PCC[NMeK]([AEEA-AEEA-Dap-C18 diacid])[β3hF][dK][NMeS]-NH2; disulfide 6-7),–
10 to 100,10 to 100,CC(C)CC(=O)N[C@@H](CCC(=O)O)C(=O)N[C@H](C(=O)N[C@@H](Cc1c[nH]cn1)C(=O)N[C@H](C(=O)N1CCC[C@H]1C(=O)N[C@H]1CSSC[C@@H](C(=O)N(C)[C@@H](CCCCNC(=O)COCCOCCNC(=O)COCCOCCNC(=O)[C@H](CN)NC(=O)CCCCCCCCCCCCCCCCC(=O)O)C(=O)N[C@H](CC(=O)N[C@H](CCCCN)C(N)=O)Cc2ccccc2)NC1=O)C(c1ccccc1)c1ccccc1)[C@@H](C)O [compound 306] (Isovaleryl-ETH[Dip]PCC[NMeK]([AEEA-AEEA-Dap-C18 diacid])[β3hF][dK]-NH2; disulfide 6-7),–
10 to 100,10 to 100,CC(C)CC(=O)N[C@@H](CCC(=O)O)C(=O)N[C@H](C(=O)N[C@@H](Cc1c[nH]cn1)C(=O)N[C@H](C(=O)N1CCC[C@H]1C(=O)N[C@H]1CSSC[C@@H](C(=O)N(C)[C@@H](CCCCNC(=O)COCCOCCNC(=O)COCCOCCNC(=O)[C@H](CN)NC(=O)CCCCCCCCCCCCCCCCC(=O)O)C(=O)N[C@H](CC(=O)N[C@H](C(N)=O)C(C)(C)C)Cc2ccccc2)NC1=O)C(c1ccccc1)c1ccccc1)[C@@H](C)O [compound 290] (Isovaleryl-ETH[Dip]PCC[NMeK]([AEEA-AEEA-Dap-C18 diacid])[β3hF][Tle]-NH2; disulfide 6-7),–
10 to 100,1 to 10,CCCCCCCCCCCCCCCC(=O)NCCCCCC(=O)NCCCC[C@@H](C(=O)N[C@H](CC(=O)N[C@H](CCCCN)C(N)=O)Cc1ccccc1)N(C)C(=O)[C@@H]1CSSC[C@H](NC(=O)[C@@H]2CCCN2C(=O)[C@@H](NC(=O)[C@H](Cc2cnc[nH]2)NC(=O)[C@@H](NC(=O)[C@H](CCC(=O)O)NC(=O)CC(C)C)[C@@H](C)O)C(c2ccccc2)c2ccccc2)C(=O)N1 [compound 308] (Isovaleryl-ETH[Dip]PCC[NMeK]([Ahx-Palmitoyl])[β3hF][dK]-NH2; disulfide 6-7),–
10 to 100,10 to 100,CC(C)CC(=O)N[C@@H](CCC(=O)O)C(=O)N[C@H](C(=O)N[C@@H](Cc1c[nH]cn1)C(=O)N[C@H](C(=O)N1CCC[C@H]1C(=O)N[C@H]1CSSC[C@@H](C(=O)N(C)[C@@H](CCCCNC(=O)COCCOCCNC(=O)COCCOCCNC(=O)[C@H](CN)NC(=O)CCCCCCCCCCCCCCCCC(=O)O)C(=O)N(C)[C@@H](Cc2ccccc2)C(=O)N[C@H](CCCCN)C(N)=O)NC1=O)C(c1ccccc1)c1ccccc1)[C@@H](C)O [compound 291] (Isovaleryl-ETH[Dip]PCC[NMeK]([AEEA-AEEA-Dap-C18 diacid])[NMeF][dK]-NH2; disulfide 6-7),–

# Continued, molecule first:
Molecule,DC50 (ferroportin [2]; [4]) [nM],IC50 (ferroportin [3]; [5]) [nM],further results
Hepcidin (ligand),–,–,Potency EC50 [1]: 34 nM
COC(=O)CC[C@H](NC(=O)CC(C)C)C(=O)N[C@H](C(=O)N[C@@H](Cc1c[nH]cn1)C(=O)N[C@H](C(=O)N1CCC[C@H]1C(=O)N[C@H]1CSSC[C@@H](C(=O)N(C)[C@@H](CCCCNC(=O)[C@H](CN)NC(=O)CCCCCCCCCCCCCCCCC(=O)O)C(=O)N[C@H](C(=O)N[C@H](CCCCN)C(N)=O)C(c2ccccc2)c2ccccc2)NC1=O)C(c1ccccc1)c1ccccc1)[C@@H](C)O [compound 206] (Isovaleryl-E(OMe)TH[Dip]PCC[NMeK]([Dap-C18 diacid])[Dip][dK]-NH2; disulfide 6-7),–,–,"DC50 (ferroportin [2]; Table 6E, ferroportin-GFP internalization/degradation, at least 18 hours incubation): 10 to 100 nM; IC50 (ferroportin [3]; Table 6E, T47D internalization assay with MSA): 10 to 100 nM"
CC[C@H](C)[C@@H]1NC(=O)[C@@H](NC(=O)[C@@H]2CCCN2C(=O)[C@@H](NC(=O)[C@H](Cc2c[nH]cn2)NC(=O)[C@@H](NC(=O)[C@H](CCC(=O)O)NC(=O)CC(C)C)[C@@H](C)O)C(c2ccccc2)c2ccccc2)CSSC[C@@H](C(=O)N[C@H](CC(=O)N[C@@H](CCCCNC(=O)COCCOCCNC(=O)COCCOCCNC(=O)CCCCCNC(=O)CCCCCCCCCCCCCCCCC(=O)O)C(=O)N[C@H](CCCCN)C(N)=O)Cc2ccccc2)NC1=O [Compd 27] (Isovaleryl-ETH[Dip]PCIC[β3hF]K([AEEA-AEEA-Ahx-C18 diacid])[dK]-NH2; disulfide 6-8),–,–,DC50 (ferroportin [2]; [6]): 10 to 100 nM; IC50 (ferroportin [3]; [7]): 10 to 100 nM
CC[C@H](C)[C@@H]1NC(=O)[C@@H](NC(=O)[C@@H]2CCCN2C(=O)[C@@H](NC(=O)[C@H](Cc2c[nH]cn2)NC(=O)[C@@H](NC(=O)[C@H](CCC(=O)O)NC(=O)CC(C)C)[C@@H](C)O)C(c2ccccc2)c2ccccc2)CSSC[C@@H](C(N)=O)NC(=O)C[C@H](Cc2ccccc2)NC(=O)[C@H](CCCCNC(=O)COCCOCCNC(=O)COCCOCCNC(=O)CC[C@H](NC(=O)CCCCCCCCCCCCCCCCC(=O)O)C(=O)O)NC1=O [Compd 32] (Isovaleryl-ETH[Dip]PCIK([AEEA-AEEA-γGlu-C18 diacid])[β3hF]C-NH2; disulfide 6-10),–,–,DC50 (ferroportin [2]; [6]): 10 to 100 nM; IC50 (ferroportin [3]; [7]): 100 to 500 nM
CC(C)CC(=O)N[C@@H](CCCC(=O)O)C(=O)N[C@H](C(=O)N[C@@H](Cc1cccnc1)C(=O)N[C@H](C(=O)N1CCC[C@H]1C(=O)N[C@H]1CSSC[C@@H](C(=O)N(C)[C@@H](CCCCNC(=O)COCCOCCNC(=O)COCCOCCNC(=O)[C@H](CN)NC(=O)CCCCCCCCCCCCCCCCC(=O)O)C(=O)N[C@H](C(=O)N[C@H](CCCCN)C(N)=O)C(c2ccccc2)c2ccccc2)NC1=O)C(c1ccccc1)c1ccccc1)[C@@H](C)O [compound 242] (Isovaleryl-[Aad]T[3Pal][Dip]PCC[NMeK]([AEEA-AEEA-Dap-C18 diacid])[Dip][dK]-NH2; disulfide 6-7),10 to 100,10 to 100,–
COCCOCCOCCOCCOCCOCCOCCOCCOCCOCCOCCOCCC(=O)NCCCC[C@@H](NC(=O)C[C@H](Cc1ccccc1)NC(=O)[C@H](CCCCNC(=O)COCCOCCNC(=O)COCCOCCNC(=O)[C@H](CN)NC(=O)CCCCCCCCCCCCCCCCC(=O)O)N(C)C(=O)[C@@H]1CSSC[C@H](NC(=O)[C@@H]2CCCN2C(=O)[C@@H](NC(=O)[C@H](Cc2c[nH]cn2)NC(=O)[C@@H](NC(=O)[C@H](CCC(=O)O)NC(=O)CC(C)C)[C@@H](C)O)C(c2ccccc2)c2ccccc2)C(=O)N1)C(N)=O [compound 255] (Isovaleryl-ETH[Dip]PCC[NMeK]([AEEA-AEEA-Dap-C18 diacid])[β3hF][dK](CH3O(CH2CH2O)11CH2CH2CO)-NH2; disulfide 6-7),10 to 100,10 to 100,–
